Test results: PMC6704710, “Preclinical evaluation of 3D185, a novel potent inhibitor of FGFR1/2/3 and CSF-1R, in FGFR-dependent and macrophage-dominant cancer models” (Journal of Experimental & Clinical Cancer Research : CR, 2019)

Key:
Aurora-A(h) = biological target: T1, Aurora-A(h) (Homo sapiens, UniProt O14965); assay: Eurofins kinase panel; assay type: biochemical; conditions: read-out: Inhibition rate (%)
T1 construct: purchased Eurofins (KinaseProfiler)
T1 sequence (O14965 1-403): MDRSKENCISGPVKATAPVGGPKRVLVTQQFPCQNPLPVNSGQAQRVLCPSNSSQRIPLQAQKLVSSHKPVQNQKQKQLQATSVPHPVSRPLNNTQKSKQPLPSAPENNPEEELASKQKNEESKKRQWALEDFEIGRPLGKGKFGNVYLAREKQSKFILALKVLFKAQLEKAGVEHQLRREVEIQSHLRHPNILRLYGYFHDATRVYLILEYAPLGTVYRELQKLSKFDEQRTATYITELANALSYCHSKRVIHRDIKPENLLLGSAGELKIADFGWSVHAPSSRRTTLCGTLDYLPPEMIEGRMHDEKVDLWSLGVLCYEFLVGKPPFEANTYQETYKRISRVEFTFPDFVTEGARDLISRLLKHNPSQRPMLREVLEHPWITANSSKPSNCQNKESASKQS

MSK1(h) = biological target: T2, MSK1(h) (Homo sapiens, UniProt O75582); assay: Eurofins kinase panel; assay type: biochemical; conditions: read-out: Inhibition rate (%)
T2 construct: purchased Eurofins (KinaseProfiler)

PAK1(h) = biological target: T3, PAK1(h) (Homo sapiens, UniProt Q13153); assay: Eurofins kinase panel; assay type: biochemical; conditions: read-out: Inhibition rate (%)
T3 construct: purchased Eurofins (KinaseProfiler)

PKR(h) = biological target: T4, PKR(h) (Homo sapiens, UniProt P19525); assay: Eurofins kinase panel; assay type: biochemical; conditions: read-out: Inhibition rate (%)
T4 construct: purchased Eurofins (KinaseProfiler)

PRAK(h) = biological target: T5, PRAK(h) (Homo sapiens, UniProt Q8IW41); assay: Eurofins kinase panel; assay type: biochemical; conditions: read-out: Inhibition rate (%)
T5 construct: purchased Eurofins (KinaseProfiler)
T5 sequence (Q8IW41 1-473): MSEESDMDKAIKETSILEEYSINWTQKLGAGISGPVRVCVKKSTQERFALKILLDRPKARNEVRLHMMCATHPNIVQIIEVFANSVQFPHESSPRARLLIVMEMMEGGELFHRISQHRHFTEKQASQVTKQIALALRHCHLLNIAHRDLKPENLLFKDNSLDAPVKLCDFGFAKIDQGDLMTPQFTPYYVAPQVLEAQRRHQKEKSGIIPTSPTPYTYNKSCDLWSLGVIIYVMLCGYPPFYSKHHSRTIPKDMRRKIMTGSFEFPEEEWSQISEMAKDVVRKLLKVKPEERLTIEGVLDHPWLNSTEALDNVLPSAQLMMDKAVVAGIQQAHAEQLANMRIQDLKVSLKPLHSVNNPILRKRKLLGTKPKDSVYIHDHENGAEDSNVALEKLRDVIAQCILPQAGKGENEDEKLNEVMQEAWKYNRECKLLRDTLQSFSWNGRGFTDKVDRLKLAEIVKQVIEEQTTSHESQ

SGK3(h) = biological target: T6, SGK3(h) (Homo sapiens, UniProt Q96BR1); assay: Eurofins kinase panel; assay type: biochemical; conditions: read-out: Inhibition rate (%)
T6 construct: purchased Eurofins (KinaseProfiler)
T6 sequence (Q96BR1 1-496): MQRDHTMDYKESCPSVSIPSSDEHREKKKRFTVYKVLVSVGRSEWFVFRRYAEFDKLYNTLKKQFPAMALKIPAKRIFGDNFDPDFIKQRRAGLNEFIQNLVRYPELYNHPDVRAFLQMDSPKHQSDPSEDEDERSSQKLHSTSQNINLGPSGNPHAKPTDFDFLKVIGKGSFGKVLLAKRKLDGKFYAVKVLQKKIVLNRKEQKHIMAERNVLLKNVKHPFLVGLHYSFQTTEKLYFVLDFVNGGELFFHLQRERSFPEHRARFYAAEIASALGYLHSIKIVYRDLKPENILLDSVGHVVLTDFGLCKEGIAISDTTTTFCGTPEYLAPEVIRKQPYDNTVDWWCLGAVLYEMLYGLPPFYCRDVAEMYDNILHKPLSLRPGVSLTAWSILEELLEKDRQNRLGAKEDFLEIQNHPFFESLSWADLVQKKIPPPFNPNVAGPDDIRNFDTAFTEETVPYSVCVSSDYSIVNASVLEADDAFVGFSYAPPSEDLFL

STK32B(h) = biological target: T7, STK32B(h) (Homo sapiens, UniProt Q9NY57); assay: Eurofins kinase panel; assay type: biochemical; conditions: read-out: Inhibition rate (%)
T7 construct: purchased Eurofins (KinaseProfiler)

TSSK4(h) = biological target: T8, TSSK4(h) (Homo sapiens, UniProt Q6SA08); assay: Eurofins kinase panel; assay type: biochemical; conditions: read-out: Inhibition rate (%)
T8 construct: purchased Eurofins (KinaseProfiler)
T8 sequence (Q6SA08 1-328): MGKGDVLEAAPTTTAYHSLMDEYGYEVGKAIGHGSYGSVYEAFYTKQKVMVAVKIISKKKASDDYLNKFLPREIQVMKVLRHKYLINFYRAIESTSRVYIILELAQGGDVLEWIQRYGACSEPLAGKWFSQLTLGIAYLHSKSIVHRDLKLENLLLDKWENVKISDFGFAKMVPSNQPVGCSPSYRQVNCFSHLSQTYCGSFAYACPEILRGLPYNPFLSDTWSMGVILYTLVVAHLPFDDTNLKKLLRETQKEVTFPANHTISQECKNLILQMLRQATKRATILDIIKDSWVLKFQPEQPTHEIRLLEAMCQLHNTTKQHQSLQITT

VEGFR2 (KDR) = biological target: T9, VEGFR2 (KDR) (Homo sapiens, UniProt P35968); assay: Kinase inhibition assay (ELISA); assay type: biochemical
T9 construct: purchased Eurofins (Fremont, United States)

[1] = test system: VEGF-induced primary HUVECs; assay: VEGF-induced HUVEC proliferation (CCK-8); assay type: cell-based; conditions: Homo sapiens, VEGF 100 ng/mL, 48 h
Experimental: Fig. 1 3D185 is a dual FGFR1/2/3 and CSF-1R inhibitor with high selectivity. a Chemical structure of 3D185. […]. H, A broad kinase profile of 3D185 against 372 protein kinases. […]. Representative data from three independent experiments are shown
The cancer cell lines indicated in Figure 3 were seeded in 96-well plates at a low density in growth medium. The next day, appropriate controls or the designated concentrations of the compounds were added to each well, and the cells were incubated for 72 h. HUVECs (passage 3) were seeded in 96-well plates in growth medium overnight and transferred to serum-free medium for 24 h. The following day, appropriate controls or the designated concentrations of the compounds were added to each well, and 100 ng/mL growth factor (bFGF or VEGF) was added to the indicated wells. The cells were incubated for 48 h. Finally, cell proliferation was determined using a sulforhodamine B (SRB) assay or a cell counting kit-8 (CCK-8) assay. […] IC50 values for proliferation curves were calculated using a 4-parameter logistic nonlinear regression model with SoftMax Pro Software (Molecular Devices, San Jose, USA).

T4 sequence (P19525 whole entry): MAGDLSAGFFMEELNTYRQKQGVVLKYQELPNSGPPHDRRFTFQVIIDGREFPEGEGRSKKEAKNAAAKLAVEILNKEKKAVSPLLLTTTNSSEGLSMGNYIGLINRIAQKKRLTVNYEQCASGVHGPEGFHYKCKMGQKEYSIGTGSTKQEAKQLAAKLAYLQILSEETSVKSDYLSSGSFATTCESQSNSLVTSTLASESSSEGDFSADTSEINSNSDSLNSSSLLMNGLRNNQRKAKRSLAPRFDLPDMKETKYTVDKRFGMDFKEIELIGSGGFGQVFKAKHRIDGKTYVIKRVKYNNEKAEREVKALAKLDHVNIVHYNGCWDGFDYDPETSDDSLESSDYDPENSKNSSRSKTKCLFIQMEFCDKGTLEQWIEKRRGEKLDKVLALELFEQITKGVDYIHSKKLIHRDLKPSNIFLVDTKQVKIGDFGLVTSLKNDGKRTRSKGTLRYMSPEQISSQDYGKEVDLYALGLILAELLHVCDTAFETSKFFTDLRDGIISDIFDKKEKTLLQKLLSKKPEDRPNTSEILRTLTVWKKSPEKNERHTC
T3 sequence (Q13153 whole entry): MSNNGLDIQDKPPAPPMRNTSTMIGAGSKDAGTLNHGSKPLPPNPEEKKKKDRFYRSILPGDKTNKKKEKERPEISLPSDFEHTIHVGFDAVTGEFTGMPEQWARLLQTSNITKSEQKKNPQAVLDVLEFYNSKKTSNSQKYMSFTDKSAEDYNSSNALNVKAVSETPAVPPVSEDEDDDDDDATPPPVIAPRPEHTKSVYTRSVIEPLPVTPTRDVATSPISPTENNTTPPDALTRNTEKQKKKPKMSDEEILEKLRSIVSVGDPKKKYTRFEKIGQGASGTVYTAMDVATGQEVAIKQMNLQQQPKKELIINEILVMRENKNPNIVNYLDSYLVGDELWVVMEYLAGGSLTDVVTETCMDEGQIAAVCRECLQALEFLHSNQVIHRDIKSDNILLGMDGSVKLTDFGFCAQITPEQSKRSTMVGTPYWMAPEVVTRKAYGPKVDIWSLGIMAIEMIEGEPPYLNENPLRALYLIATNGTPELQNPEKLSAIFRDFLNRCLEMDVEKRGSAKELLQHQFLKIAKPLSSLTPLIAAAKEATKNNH
T7 sequence (Q9NY57 whole entry): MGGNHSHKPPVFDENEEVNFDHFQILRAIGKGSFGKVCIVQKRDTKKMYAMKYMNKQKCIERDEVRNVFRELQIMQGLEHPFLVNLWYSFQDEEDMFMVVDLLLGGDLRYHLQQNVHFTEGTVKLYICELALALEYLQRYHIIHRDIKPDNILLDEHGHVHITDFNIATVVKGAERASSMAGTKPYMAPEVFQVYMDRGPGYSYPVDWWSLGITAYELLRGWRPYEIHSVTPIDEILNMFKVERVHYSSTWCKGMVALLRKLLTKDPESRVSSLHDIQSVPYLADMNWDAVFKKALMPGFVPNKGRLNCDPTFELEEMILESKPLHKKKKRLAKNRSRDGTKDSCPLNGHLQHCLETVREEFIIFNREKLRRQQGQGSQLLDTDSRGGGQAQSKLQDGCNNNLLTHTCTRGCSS
T2 sequence (O75582 whole entry): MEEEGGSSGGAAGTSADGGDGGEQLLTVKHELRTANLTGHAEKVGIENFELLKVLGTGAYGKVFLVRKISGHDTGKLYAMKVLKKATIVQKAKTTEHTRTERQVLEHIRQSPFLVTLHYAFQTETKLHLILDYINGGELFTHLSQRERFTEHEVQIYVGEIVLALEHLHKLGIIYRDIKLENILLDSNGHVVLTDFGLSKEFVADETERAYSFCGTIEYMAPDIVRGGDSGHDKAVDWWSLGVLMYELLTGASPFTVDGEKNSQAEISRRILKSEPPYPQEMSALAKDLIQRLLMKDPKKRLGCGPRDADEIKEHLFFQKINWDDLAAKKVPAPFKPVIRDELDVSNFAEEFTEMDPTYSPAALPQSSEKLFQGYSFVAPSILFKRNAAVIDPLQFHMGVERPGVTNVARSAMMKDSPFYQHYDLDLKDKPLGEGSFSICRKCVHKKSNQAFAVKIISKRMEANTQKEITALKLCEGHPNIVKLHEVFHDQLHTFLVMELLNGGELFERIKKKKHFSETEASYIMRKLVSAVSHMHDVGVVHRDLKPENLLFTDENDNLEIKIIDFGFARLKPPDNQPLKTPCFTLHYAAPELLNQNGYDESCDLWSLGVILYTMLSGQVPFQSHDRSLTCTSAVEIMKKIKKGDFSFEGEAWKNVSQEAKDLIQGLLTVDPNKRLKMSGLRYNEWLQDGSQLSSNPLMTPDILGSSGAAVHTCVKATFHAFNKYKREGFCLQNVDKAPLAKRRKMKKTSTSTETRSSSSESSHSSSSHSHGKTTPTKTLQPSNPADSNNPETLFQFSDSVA
T9 sequence (P35968 20-1356): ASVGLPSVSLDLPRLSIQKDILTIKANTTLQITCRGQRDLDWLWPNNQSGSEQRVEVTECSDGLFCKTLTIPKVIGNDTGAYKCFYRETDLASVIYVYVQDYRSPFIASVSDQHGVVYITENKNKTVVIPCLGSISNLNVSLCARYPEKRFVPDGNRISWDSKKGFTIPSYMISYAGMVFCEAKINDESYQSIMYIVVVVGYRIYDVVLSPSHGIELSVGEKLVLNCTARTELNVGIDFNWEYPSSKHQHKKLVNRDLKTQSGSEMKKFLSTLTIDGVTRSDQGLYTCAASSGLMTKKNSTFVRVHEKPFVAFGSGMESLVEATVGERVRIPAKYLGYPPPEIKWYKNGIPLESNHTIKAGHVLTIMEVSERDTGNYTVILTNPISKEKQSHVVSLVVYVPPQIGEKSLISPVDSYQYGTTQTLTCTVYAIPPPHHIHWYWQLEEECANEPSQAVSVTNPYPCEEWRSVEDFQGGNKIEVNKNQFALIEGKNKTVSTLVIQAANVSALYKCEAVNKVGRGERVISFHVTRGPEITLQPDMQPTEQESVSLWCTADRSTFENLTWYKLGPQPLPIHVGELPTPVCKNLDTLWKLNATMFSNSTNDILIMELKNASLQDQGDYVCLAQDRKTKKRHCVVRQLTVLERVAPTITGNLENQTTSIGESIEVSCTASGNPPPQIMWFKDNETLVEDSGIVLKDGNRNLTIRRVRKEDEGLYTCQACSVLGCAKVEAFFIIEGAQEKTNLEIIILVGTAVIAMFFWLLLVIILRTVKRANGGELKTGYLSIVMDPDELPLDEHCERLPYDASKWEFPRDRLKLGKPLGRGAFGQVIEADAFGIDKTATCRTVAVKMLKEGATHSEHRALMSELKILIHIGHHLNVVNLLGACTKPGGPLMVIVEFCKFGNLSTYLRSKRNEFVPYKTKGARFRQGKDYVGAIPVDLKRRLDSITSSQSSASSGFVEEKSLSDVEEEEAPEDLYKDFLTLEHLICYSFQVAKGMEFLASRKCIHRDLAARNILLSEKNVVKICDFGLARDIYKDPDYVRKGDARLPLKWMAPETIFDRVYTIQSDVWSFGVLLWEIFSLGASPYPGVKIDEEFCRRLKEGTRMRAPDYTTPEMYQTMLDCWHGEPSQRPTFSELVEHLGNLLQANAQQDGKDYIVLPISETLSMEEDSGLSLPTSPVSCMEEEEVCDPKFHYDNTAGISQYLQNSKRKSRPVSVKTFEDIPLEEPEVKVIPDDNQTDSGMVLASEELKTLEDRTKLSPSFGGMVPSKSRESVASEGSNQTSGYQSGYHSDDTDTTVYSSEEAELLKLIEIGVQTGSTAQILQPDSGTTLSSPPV

SMILES: COc1cc(OC)c(Cl)c(-c2ccc3c(NC(=O)c4ccc(N5CCNC(C)(C)C5)cc4)n[nH]c3n2)c1Cl [3D185]
- inhibition at 0.01 µM (Aurora-A(h); 10 nM): 4%
- inhibition at 0.1 µM (Aurora-A(h); 100 nM): 5%
- inhibition at 1 µM (Aurora-A(h); 1000 nM): 3%
- inhibition at 0.01 µM (MSK1(h); 10 nM): 31%
- inhibition at 0.1 µM (MSK1(h); 100 nM): 19%
- inhibition at 1 µM (MSK1(h); 1000 nM): 24%
- inhibition at 0.01 µM (PAK1(h); 10 nM): 5%
- inhibition at 0.1 µM (PAK1(h); 100 nM): 6%
- inhibition at 1 µM (PAK1(h); 1000 nM): 2%
- inhibition at 0.01 µM (PKR(h); 10 nM): -4%
- inhibition at 0.1 µM (PKR(h); 100 nM): -3%
- inhibition at 1 µM (PKR(h); 1000 nM): 0%
- inhibition at 0.01 µM (PRAK(h); 10 nM): -18%
- inhibition at 0.1 µM (PRAK(h); 100 nM): -24%
- inhibition at 1 µM (PRAK(h); 1000 nM): -10%
- inhibition at 0.01 µM (SGK3(h); 10 nM): 3%
- inhibition at 0.1 µM (SGK3(h); 100 nM): 2%
- inhibition at 1 µM (SGK3(h); 1000 nM): 14%
- inhibition at 0.01 µM (STK32B(h); 10 nM): 1%
- inhibition at 0.1 µM (STK32B(h); 100 nM): 1%
- inhibition at 1 µM (STK32B(h); 1000 nM): 0%
- inhibition at 0.01 µM (TSSK4(h); 10 nM): -6%
- inhibition at 0.1 µM (TSSK4(h); 100 nM): -10%
- inhibition at 1 µM (TSSK4(h); 1000 nM): -9%
- IC50 (VEGFR2 (KDR); mean ± SD): 382 nM
- selectivity for FGFR1 over KDR (VEGFR2 (KDR); molecular kinase assays): over 760 fold
- IC50 [1]: 88.1 nM
